Measurements taken from patent US20240215583A1, “PLANT BIOLOGIC INCLUDING PYRROLOQUINOLINE QUINONE (PQQ)” (Dakota Bio LLC, priority 2022, published 2024).
In brackets after ≈: the same amount, converted by molar mass.

Experiment: physchem
Type: physicochemical
Conditions: 25 °C, water
Description: For instance, it has been observed that PQQ can be difficult to dissolve in liquid mixtures. […] In most cases, rather than dissolving, PQQ is initially suspended within a liquid solution, but the PQQ later settles out of this suspension. Once settled, the PQQ generally becomes ineffective and is inaccessible for a plant to uptake. For example, the PQQ quickly settles out of suspension onto the bottom of any storage container which in turn inhibits the spraying or otherwise applying the PQQ onto the plants and/or soil. This inability for PQQ to remain dissolved and/or suspended is exacerbated when out in commercial agricultural fields, because the solution is typically kept in large drums or other large containers that are difficult to agitate or otherwise move so as to maintain the suspension. Moreover, there is currently no commercially practical way to dissolve PQQ in a liquid mixture to mass produce a product useful in agricultural and/or horticultural situations (i.e., growing of ornamental plants).

- solubility: ~212 µg/mL (≈ 641 µM)
Structure (SMILES): O=C(O)c1cc(C(=O)O)c2c(n1)C(=O)C(=O)c1cc(C(=O)O)[nH]c1-2 [PQQ, 4,5-Dioxo-4,5-dihydro-1H-pyrrolo[2,3-f]quinoline-2,7,9-tricarboxylic acid]
